Source: patent US20100160369A1, “S1P1 Agonists and Methods of Making And Using” (EXELIXIS, INC., priority 2008, published 2010)
Where a name gives a salt, the structure may show the parent alone.

How the values were obtained:
S1P1 [1] = target: T1, S1P1 (Homo sapiens, UniProt P21453); assay: Tango β-arrestin Recruitment Assay in U2OS cells (Assay 2b); assay type: cell-based; design: linker with TEV protease (N1a) cleavage site (C); conditions: Tango β-arrestin Recruitment Assay, read-out: Assay 2b EC50
How it was run: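 Agonist EC50 from percent activity relative to 1 μM S1P efficacy control, using background-subtracted 460/530 nm emission ratios. Compounds (max 1 μM, ten 3-fold dilutions) incubated overnight at 37 °C with serum-starved S1P1 U2OS reporter cells, followed by 2 h β-lactamase reagent at room temperature.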
Target sequence in this assay (P21453 whole entry): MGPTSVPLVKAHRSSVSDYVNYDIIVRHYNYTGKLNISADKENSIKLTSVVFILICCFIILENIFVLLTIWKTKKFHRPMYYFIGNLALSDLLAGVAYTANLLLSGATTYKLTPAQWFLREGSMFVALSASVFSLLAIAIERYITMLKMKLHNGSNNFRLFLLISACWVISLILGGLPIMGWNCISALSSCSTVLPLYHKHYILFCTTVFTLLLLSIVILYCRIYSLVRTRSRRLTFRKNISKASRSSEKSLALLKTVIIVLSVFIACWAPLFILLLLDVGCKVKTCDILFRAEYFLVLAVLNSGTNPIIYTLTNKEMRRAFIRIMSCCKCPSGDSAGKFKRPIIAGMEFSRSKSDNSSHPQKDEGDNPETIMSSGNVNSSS
Target sequence in this assay (P32121 whole entry partner): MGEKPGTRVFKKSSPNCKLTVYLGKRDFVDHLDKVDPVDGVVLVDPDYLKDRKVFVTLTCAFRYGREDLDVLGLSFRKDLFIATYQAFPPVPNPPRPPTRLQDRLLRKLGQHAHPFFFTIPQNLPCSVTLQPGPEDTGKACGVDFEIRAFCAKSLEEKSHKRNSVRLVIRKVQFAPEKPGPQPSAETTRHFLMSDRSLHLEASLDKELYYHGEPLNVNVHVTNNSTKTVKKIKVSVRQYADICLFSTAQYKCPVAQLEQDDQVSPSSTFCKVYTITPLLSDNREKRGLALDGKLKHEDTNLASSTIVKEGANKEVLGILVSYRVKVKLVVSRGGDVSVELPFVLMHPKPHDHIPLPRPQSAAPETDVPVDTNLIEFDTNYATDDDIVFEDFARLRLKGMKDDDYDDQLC

S1P1 [2] = target: T1, S1P1; assay: Tango β-arrestin Recruitment Assay in HEK293 cells (Assay 2a); assay type: cell-based; design: linker with TEV protease (N1a) cleavage site (C); host or cells: HEK293, transiently transfected; conditions: Tango β-arrestin Recruitment Assay, read-out: Assay 2a EC50
How it was run: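 Agonist-driven β-arrestin2–TEV recruitment releases tTA to drive luciferase in transiently transfected HEK293 cells. Ten 3-fold dilutions from 10 μM top (1% DMSO), 16–18 h at 37 °C; EC50 fitted to percent activity versus DMSO background and 5 μM S1P efficacy control.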
Target sequence in this assay (P21453 whole entry): as the sequence (P21453 whole entry) above
Target sequence in this assay (P32121 whole entry partner): as the sequence (P32121 whole entry partner) above

hS1P1R (hEdg1) = target: T2, hS1P1R (hEdg1) (Homo sapiens, UniProt P21453); assay: hS1P1R GTPγS Binding Assay (Assay 3a); assay type: biochemical
T2 construct: purchased Lonza
Procedure: The hS1P1R GTPγS binding assay was carried out at room temperature in 96 well non-binding surface assay plates. The reaction in each well contained 4 μg hS1P1R (hEdg1) membrane protein (Lonza), 30 μM GDP, 0.1 nM [^35S]GTPγS, 0.25% fatty acid free BSA, and serially diluted hS1P1R agonist compound in 200 μL assay buffer (25 mM Tris-HCl PH 7.9, 100 mM NaCl, 3 mM MgCl2, and 0.2 mM EGTA). After one hour of incubation, 0.9 mg of WGA (Wheat Germ Agglutinin) SPA beads in 50 μL of assay buffer was added to each well. The SPA beads were spun down after an additional one hour incubation. The radioactivity of the bound GTPγS was counted by reading the assay plate using a MicroBeta.
Assay 1 is the CNG cAMP Assay as described in Biological Example 1. Assay 2a and 2b are the Tango™ β-arrestin Recruitment Assay in HEK293 and U2OS cells, respectively, as described in Biological Example 2. Assay 3a is the hS1P1R GTPγS Binding Assay as described in Biological Example 3. Assay 3b is the GTP-Eu Binding Assay as described in Biological Example 3. EC50's were measured unless otherwise noted. […] In the table, “nt” means the Compound was not tested and “no” means the compound was tested but had no measurable activity under the assay conditions employed.

S1P1 [3] = target: T1, S1P1; assay: CNG cAMP Assay (Assay 1); assay type: cell-based; design: host or cells: HEK293 cells expressing the CNG channel; conditions: read-out: Assay 1 EC50
How it was run: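 cAMP-gated CNG membrane-potential read-out (350/590 nm, T90/T0 ratio) in S1P1/CNG HEK293 cells after 90 min with compound plus NECA 500 nM, S1P 10 nM (EC95), Ro 20-1724 25 μM. Ten 3-fold points from 10 μM, 1.8% DMSO; percent activity vs NECA-only control gives EC50.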
Target sequence in this assay (P21453 whole entry): as the sequence (P21453 whole entry) above

T2 sequence (P21453 whole entry): as above

| SMILES | EC50 (S1P1 [1]) [nM] | EC50 (S1P1 [2]) [nM] | EC50 (hS1P1R (hEdg1)) [nM] | EC50 (S1P1 [3]) [nM] |
| --- | --- | --- | --- | --- |
| OCCCOc1cc(Cl)c(-c2noc(-c3cn4cc(C(F)(F)F)cc(Cl)c4n3)n2)cc1Cl [Example 105, 3-[(2,5-dichloro-4-{5-[8-chloro-6-(trifluoromethyl)imidazo[1,2-a]pyridin-2-yl]-1,2,4-oxadiazol-3-yl}phenyl)oxy]propan-1-ol] | ≤ 100 | ≤ 100 | ≤ 100 | – |
| OCC(O)COc1cc(Cl)c(-c2noc(-c3cn4cc(C(F)(F)F)cc(Br)c4n3)n2)cc1Cl (stereo not drawn) [Example 212, 3-[(4-{5-[8-bromo-6-(trifluoromethyl)imidazo[1,2-a]pyridin-2-yl]-1,2,4-oxadiazol-3-yl}-2,5-dichlorophenyl)oxy]propane-1,2-diol] | ≤ 100 | ≤ 100 | ≤ 100 | – |
| CC(C)(O)COc1cc(Cl)c(-c2noc(-c3cn4cc(C(F)(F)F)cc(Cl)c4n3)n2)cc1Cl [Example 166, 1-[(2,5-dichloro-4-{5-[8-chloro-6-(trifluoromethyl)imidazo[1,2-a]pyridin-2-yl]-1,2,4-oxadiazol-3-yl}phenyl)oxy]-2-methylpropan-2-ol] | ≤ 100 | ≤ 100 | 100 to 500 | – |
| Cc1cc(-c2nnc(-c3cn4cc(C(F)(F)F)cc(Cl)c4n3)s2)cc(C)c1OCC(O)CO (stereo not drawn) [Example 246, 3-[(4-{5-[8-chloro-6-(trifluoromethyl)imidazo[1,2-a]pyridin-2-yl]-1,3,4-thiadiazol-2-yl}-2,6-dimethylphenyl)oxy]propane-1,2-diol] | ≤ 100 | ≤ 100 | – | ≤ 100 |
| O=C(O)CCc1cc(Cl)c(-c2nc(-c3cn4cc(I)cc(Cl)c4n3)no2)cc1F [Example 240, 3-{5-chloro-4-[3-(8-chloro-6-iodoimidazo[1,2-a]pyridin-2-yl)-1,2,4-oxadiazol-5-yl]-2-fluorophenyl}propanoic acid] | – | ≤ 100 | 500 to 1000 | – |
| OCC(O)COc1ccc(-c2noc(-c3cn4cc(C(F)(F)F)cc(Cl)c4n3)n2)c(Cl)c1 (stereo not drawn) [Example 194, 3-[(3-chloro-4-{5-[8-chloro-6-(trifluoromethyl)imidazo[1,2-a]pyridin-2-yl]-1,2,4-oxadiazol-3-yl}phenyl)oxy]propane-1,2-diol] | – | ≤ 100 | 500 to 1000 | ≤ 100 |
| OCC(O)COc1cc(Cl)c(-c2nnc(-c3cn4cc(C(F)(F)F)cc(Cl)c4n3)s2)cc1F (stereo not drawn) [Example 247, 3-[(5-chloro-4-{5-[8-chloro-6-(trifluoromethyl)imidazo[1,2-a]pyridin-2-yl]-1,3,4-thiadiazol-2-yl}-2-fluorophenyl)oxy]propane-1,2-diol] | 100 to 500 | ≤ 100 | – | ≤ 100 |
| OCCCc1cc(Cl)c(-c2noc(-c3cn4cc(C(F)(F)F)cc(Cl)c4n3)n2)cc1Cl [Example 167, 3-(2,5-dichloro-4-{5-[8-chloro-6-(trifluoromethyl)imidazo[1,2-a]pyridin-2-yl]-1,2,4-oxadiazol-3-yl}phenyl)propan-1-ol] | ≤ 100 | ≤ 100 | ≤ 100 | – |
| OCCOc1cc(Cl)c(-c2noc(-c3cn4cc(C(F)(F)F)cc(Br)c4n3)n2)cc1Cl [Example 277, 2-[(4-{5-[8-bromo-6-(trifluoromethyl)imidazo[1,2-a]pyridin-2-yl]-1,2,4-oxadiazol-3-yl}-2,5-dichlorophenyl)oxy]ethanol] | ≤ 100 | ≤ 100 | ≤ 100 | – |
| OCC(O)COc1cc(Cl)c(-c2nc(-c3cn4cc(C(F)(F)F)cc(Cl)c4n3)no2)cc1Cl (stereo not drawn) [Entry 50] | ≤ 100 | ≤ 100 | ≤ 100 | – |
| OCC(O)COc1c(Cl)cc(-c2noc(-c3cn4cc(C(F)(F)F)cc(Cl)c4n3)n2)cc1Cl (stereo not drawn) [Example 209, 3-[(2,6-dichloro-4-{5-[8-chloro-6-(trifluoromethyl)imidazo[1,2-a]pyridin-2-yl]-1,2,4-oxadiazol-3-yl}phenyl)oxy]propane-1,2-diol] | – | ≤ 100 | ≤ 100 | – |
| CC(Cc1cc(Cl)c(-c2nnc(-c3cn4cc(C(F)(F)F)cc(Cl)c4n3)s2)cc1Cl)C(=O)O (stereo not drawn) [Example 285, 3-(2,5-dichloro-4-{5-[8-chloro-6-(trifluoromethyl)imidazo[1,2-a]pyridin-2-yl]-1,3,4-thiadiazol-2-yl}phenyl)-2-methylpropanoic acid] | – | ≤ 100 | 1000 to 5000 | – |
| OCC(O)COc1cc(Cl)c(-c2noc(-c3cn4cc(I)cc(Cl)c4n3)n2)cc1Cl (stereo not drawn) [Example 204, 3-({2,5-dichloro-4-[5-(8-chloro-6-iodoimidazo[1,2-a]pyridin-2-yl)-1,2,4-oxadiazol-3-yl]phenyl}oxy)propane-1,2-diol] | – | ≤ 100 | 100 to 500 | – |
| OCC(O)COc1cc(Cl)c(-c2noc(-c3cn4cc(C(F)(F)F)cc(Cl)c4n3)n2)cc1F (stereo not drawn) [Example 198, 3-[(5-chloro-4-{5-[8-chloro-6-(trifluoromethyl)imidazo[1,2-a]pyridin-2-yl]-1,2,4-oxadiazol-3-yl}-2-fluorophenyl)oxy]propane-1,2-diol] | – | ≤ 100 | ≤ 100 | ≤ 100 |
| NC(CO)COc1ccc(-c2noc(-c3cn4cc(C(F)(F)F)cc(Cl)c4n3)n2)c(Cl)c1 (stereo not drawn) [Example 213, 2-amino-3-[(3-chloro-4-{5-[8-chloro-6-(trifluoromethyl)imidazo[1,2-a]pyridin-2-yl]-1,2,4-oxadiazol-3-yl}phenyl)oxy]propan-1-ol] | ≤ 100 | ≤ 100 | – | ≤ 100 |
| O=C(O)C1CC1c1cc(Cl)c(-c2noc(-c3cn4cc(C(F)(F)F)cc(Br)c4n3)n2)cc1F (stereo not drawn) [Example 89, 2-(4-{5-[8-bromo-6-(trifluoromethyl)imidazo[1,2-a]pyridin-2-yl]-1,2,4-oxadiazol-3-yl}-5-chloro-2-fluorophenyl)cyclopropanecarboxylic acid] | – | ≤ 100 | 500 to 1000 | ≤ 100 |
| O=C(O)CCc1c(Cl)cc(-c2noc(-c3cn4cc(C(F)(F)F)cc(Cl)c4n3)n2)cc1Cl [Entry 21] | – | ≤ 100 | 500 to 1000 | ≤ 100 |
| OC[C@@H](O)COc1cc(Cl)c(-c2noc(-c3cn4cc(C(F)(F)F)cc(Br)c4n3)n2)cc1Cl [Example 317, (2R)-3-[(4-{5-[8-bromo-6-(trifluoromethyl)imidazo[1,2-a]pyridin-2-yl]-1,2,4-oxadiazol-3-yl}-2,5-dichlorophenyl)oxy]propane-1,2-diol] | ≤ 100 | ≤ 100 | – | – |
| C[C@H](COc1cc(Cl)c(-c2noc(-c3cn4cc(C(F)(F)F)cc(Br)c4n3)n2)cc1Cl)OP(=O)(O)O [Example 324, (1R)-2-[(4-{5-[8-bromo-6-(trifluoromethyl)imidazo[1,2-a]pyridin-2-yl]-1,2,4-oxadiazol-3-yl}-2,5-dichlorophenyl)oxy]-1-methylethyl dihydrogen phosphate] | ≤ 100 | ≤ 100 | – | – |
| O=C(O)CCc1c(Cl)cc(-c2nnc(-c3cn4cc(C(F)(F)F)cc(Cl)c4n3)s2)cc1Cl [Example 206, 3-(2,6-dichloro-4-{5-[8-chloro-6-(trifluoromethyl)imidazo[1,2-a]pyridin-2-yl]-1,3,4-thiadiazol-2-yl}phenyl)propanoic acid] | – | ≤ 100 | 1000 to 5000 | – |
| C[C@@H](COc1cc(Cl)c(-c2noc(-c3cn4cc(C(F)(F)F)cc(Cl)c4n3)n2)cc1Cl)OS(=O)(=O)O [Example 326, (1S)-2-[(2,5-dichloro-4-{5-[8-chloro-6-(trifluoromethyl)imidazo[1,2-a]pyridin-2-yl]-1,2,4-oxadiazol-3-yl}phenyl)oxy]-1-methylethyl hydrogen sulfate] | ≤ 100 | ≤ 100 | – | – |
| O=C(O)CCc1cc(Cl)c(-c2nnc(-c3cn4cc(I)cc(Cl)c4n3)s2)cc1F [Example 207, 3-{5-chloro-4-[5-(8-chloro-6-iodoimidazo[1,2-a]pyridin-2-yl)-1,3,4-thiadiazol-2-yl]-2-fluorophenyl}propanoic acid] | – | ≤ 100 | 1000 to 5000 | – |
